In patent US5849743A, “Quinoxalines and drugs prepared therefrom” (BASF Aktiengesellschaft, priority 1997, dated 1998) one finds Ki data, which are given here for two molecules.

The structures appear in SMILES notation. Where only a bound is given, the exact number is not on record here.

As a reminder, the Ki is a measure of affinity in units of concentration, obtained from inhibition or displacement. Low values mean higher affinity, high ones lower affinity.

This experiment deals with AMPA receptors. Nature of the experiment: Binding of 3H-AMPA to rat cerebral membrane material. To be noted: displacement of 3H-AMPA, membrane material from rat cerebra, incubated on ice for 60 minutes. As for the experimental part:
The pharmacological activity of the compounds I according to the invention was investigated on isolated membrane material from rat brains. For this purpose, the membrane material was incubated in the presence of the substances according to the invention with the radiolabeled substances ^3 H-2-amino-3-hydroxy-5-methyl-4-isoxazolepropionic acid (^3 H-AMPA), ^3 H-5,7-dichlorokynurenic acid or ^3 H-kainate. During this the said radioligands bind in each case to the glutamate receptors specific for them, ie. to AMPA receptors, (^3 H-5,7-dichlorokynurenic acid-binding) NMDA receptors and kainate receptors respectively. After the incubation, the membranes with the receptor-bound radioligands were separated from the free radioligands, and the radioactivity associated with the membranes as measured by liquid scintillation counting. The concentration of receptor-bound ligands, and the extent of displacement of a given radioligand by particular concentrations of the compounds I according to the invention, can be determined from the radioactivity of the membranes. […]
A general note: Loss of bound radioactivity is the signal in a displacement assay; it reports binding, not function.

Molecule `O=C(NCc1ccn(-c2cc3[nH]c(=O)c(=O)[nH]c3cc2[N+](=O)[O-])c1)c1ccncc1` [Example 3, acetate] registered a Ki of less than 10 µM.
The molecule `O=C(O)Cn1c(=O)c(=O)[nH]c2cc([N+](=O)[O-])c(-n3ccc(CN4CCCCC4)c3)cc21` [Example 14, 1-Carboxymethyl-6-nitro-7-(3-((1-piperidinyl)methyl)-1-pyrrolyl)quinoxaline-2,3(1H,4H)-dione] showed an inhibition constant (Ki) of less than 10 µM.
